{
  "source": "PubChem BioAssay AID248",
  "about": "(DTP/NCI, 2004)",
  "tested_on": "L1210 leukemia ip in BDF1 mice, survival T/C",
  "experiment": "NCI In Vivo Anticancer Drug Screen. Data for tumor model L1210 Leukemia (intraperitoneal) in B6D2F1 (BDF1) mice",
  "conditions": "endpoint: mean survival time, higher = longer survival",
  "how_it_was_run": "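Each compound was tested against a transplantable tumor grown in mice. The endpoint was survival, with treated animals benchmarked against vehicle controls as a simple ratio.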",
  "note": "Where “and” joins values, the source holds several entries; their conditions need not be identical. Equal values may be shown once. Toxic doses and inconclusive results are not listed.",
  "data": [
    {"smiles": "O=NN(CCCl)C(=O)NC1CC2CCC1C2", "note": "(configuration not stated)", "values": [
      {"measurement": "T/C", "setting": "dose: 29.25 mg/kg/injection, schedule: Q## X001 (oral), vehicle: other", "value": "196 % of control"},
      {"measurement": "T/C", "setting": "dose: 30.0 mg/kg/injection, schedule: Q01DX001 (oral), vehicle: other", "value": "229 % of control"},
      {"measurement": "T/C", "setting": "dose: 32.0 mg/kg/injection, schedule: Q01DX009 (ip), vehicle: carboxymethylcellulose (CMC)", "value": "196 % of control"},
      {"measurement": "T/C", "setting": "dose: 32.0 mg/kg/injection, schedule: Q01DX009 (oral), vehicle: carboxymethylcellulose (CMC)", "value": "187 % of control"},
      {"measurement": "T/C", "setting": "dose: 32.4 mg/kg/injection, schedule: Q01DX001 (ip), vehicle: carboxymethylcellulose (CMC)", "value": "109 % of control"},
      {"measurement": "T/C", "setting": "dose: 35.0 mg/kg/injection, schedule: Q## X032 (ip), vehicle: other", "value": "158 % of control"},
      {"measurement": "T/C", "setting": "dose: 40.0 mg/kg/injection, schedule: Q01DX001 (ip), vehicle: carboxymethylcellulose (CMC)", "value": "191 % of control"},
      {"measurement": "T/C", "setting": "dose: 50.0 mg/kg/injection, schedule: Q01DX001 (ip), vehicle: saline", "value": "242 % of control"},
      {"measurement": "T/C", "setting": "dose: 50.0 mg/kg/injection, schedule: Q01DX009 (oral), vehicle: carboxymethylcellulose (CMC)", "value": "200 % of control"},
      {"measurement": "T/C", "setting": "dose: 50.0 mg/kg/injection, schedule: Q04DX005 (ip), vehicle: carboxymethylcellulose (CMC)", "value": "230 % of control"},
      {"measurement": "T/C", "setting": "dose: 50.0 mg/kg/injection, schedule: Q07DX Z (ip), vehicle: other", "value": "223 % of control"},
      {"measurement": "T/C", "setting": "dose: 50.0 mg/kg/injection, schedule: Q## X009 (ip), vehicle: carboxymethylcellulose (CMC)", "value": "190 % of control"},
      {"measurement": "T/C", "setting": "dose: 53.0 mg/kg/injection, schedule: Q## X032 (ip), vehicle: other", "value": "121 % of control"},
      {"measurement": "T/C", "setting": "dose: 54.0 mg/kg/injection, schedule: Q01DX001 (ip), vehicle: carboxymethylcellulose (CMC)", "value": "115 % of control"},
      {"measurement": "T/C", "setting": "dose: 64.0 mg/kg/injection, schedule: Q01DX005 (ip), vehicle: carboxymethylcellulose (CMC)", "value": "119 % of control"},
      {"measurement": "T/C", "setting": "dose: 64.0 mg/kg/injection, schedule: Q01DX009 (ip), vehicle: carboxymethylcellulose (CMC)", "value": "123 % of control"},
      {"measurement": "T/C", "setting": "dose: 64.0 mg/kg/injection, schedule: Q01DX009 (oral), vehicle: carboxymethylcellulose (CMC)", "value": "106 % of control"},
      {"measurement": "T/C", "setting": "dose: 64.0 mg/kg/injection, schedule: Q04DX003 (ip), vehicle: carboxymethylcellulose (CMC)", "value": "118 % of control"},
      {"measurement": "T/C", "setting": "dose: 66.0 mg/kg/injection, schedule: Q## X004 (ip), vehicle: other", "value": "191 % of control"},
      {"measurement": "T/C", "setting": "dose: 88.0 mg/kg/injection, schedule: Q01DX001 (oral), vehicle: other", "value": "167 % of control"},
      {"measurement": "T/C", "setting": "dose: 90.0 mg/kg/injection, schedule: Q01DX001 (ip), vehicle: carboxymethylcellulose (CMC)", "value": "242 % of control"},
      {"measurement": "T/C", "setting": "dose: 100.0 mg/kg/injection, schedule: Q01DX001 (ip), vehicle: carboxymethylcellulose (CMC)", "value": "227 % of control"},
      {"measurement": "T/C", "setting": "dose: 100.0 mg/kg/injection, schedule: Q01DX001 (ip), vehicle: other", "value": "225 % of control"},
      {"measurement": "T/C", "setting": "dose: 100.0 mg/kg/injection, schedule: Q01DX001 (oral), vehicle: carboxymethylcellulose (CMC)", "value": "245 % of control"},
      {"measurement": "T/C", "setting": "dose: 100.0 mg/kg/injection, schedule: Q01DX001 (oral), vehicle: other", "value": "190 % of control"},
      {"measurement": "T/C", "setting": "dose: 100.0 mg/kg/injection, schedule: Q01DX001 (sc), vehicle: other", "value": "221 % of control"},
      {"measurement": "T/C", "setting": "dose: 100.0 mg/kg/injection, schedule: Q01DX005 (ip), vehicle: carboxymethylcellulose (CMC)", "value": "108 % of control"},
      {"measurement": "T/C", "setting": "dose: 100.0 mg/kg/injection, schedule: Q01DX017 (ip), vehicle: carboxymethylcellulose (CMC)", "value": "118 % of control"},
      {"measurement": "T/C", "setting": "dose: 100.0 mg/kg/injection, schedule: Q04DX003 (oral), vehicle: carboxymethylcellulose (CMC)", "value": "194 % of control"},
      {"measurement": "T/C", "setting": "dose: 100.0 mg/kg/injection, schedule: Q## X006 (oral), vehicle: carboxymethylcellulose (CMC)", "value": "161 % of control"},
      {"measurement": "T/C", "setting": "dose: 100.0 mg/kg/injection, schedule: Q## X009 (ip), vehicle: carboxymethylcellulose (CMC)", "value": "111 % of control"},
      {"measurement": "T/C", "setting": "dose: 117.0 mg/kg/injection, schedule: Q01DX001 (oral), vehicle: other", "value": "105 % of control"},
      {"measurement": "T/C", "setting": "dose: 117.0 mg/kg/injection, schedule: Q## X001 (oral), vehicle: other", "value": "122 % of control"},
      {"measurement": "T/C", "setting": "dose: 128.0 mg/kg/injection, schedule: Q01DX001 (ip), vehicle: carboxymethylcellulose (CMC)", "value": "104 % of control"},
      {"measurement": "T/C", "setting": "dose: 128.0 mg/kg/injection, schedule: Q01DX001 (oral), vehicle: carboxymethylcellulose (CMC)", "value": "245 % of control"},
      {"measurement": "T/C", "setting": "dose: 128.0 mg/kg/injection, schedule: Q01DX005 (ip), vehicle: carboxymethylcellulose (CMC)", "value": "93 % of control"},
      {"measurement": "T/C", "setting": "dose: 187.0 mg/kg/injection, schedule: Q01DX001 (ip), vehicle: carboxymethylcellulose (CMC)", "value": "224 % of control"},
      {"measurement": "T/C", "setting": "dose: 200.0 mg/kg/injection, schedule: Q01DX001 (ip), vehicle: carboxymethylcellulose (CMC)", "value": "94 % of control and 111 % of control"},
      {"measurement": "T/C", "setting": "dose: 200.0 mg/kg/injection, schedule: Q01DX001 (ip), vehicle: other", "value": "118 % of control"},
      {"measurement": "T/C", "setting": "dose: 200.0 mg/kg/injection, schedule: Q01DX001 (iv), vehicle: other", "value": "183 % of control"},
      {"measurement": "T/C", "setting": "dose: 200.0 mg/kg/injection, schedule: Q01DX001 (oral), vehicle: carboxymethylcellulose (CMC)", "value": "122 % of control"},
      {"measurement": "T/C", "setting": "dose: 200.0 mg/kg/injection, schedule: Q04DX005 (ip), vehicle: carboxymethylcellulose (CMC)", "value": "96 % of control"},
      {"measurement": "T/C", "setting": "dose: 256.0 mg/kg/injection, schedule: Q01DX001 (sc), vehicle: carboxymethylcellulose (CMC)", "value": "109 % of control"},
      {"measurement": "T/C", "setting": "dose: 400.0 mg/kg/injection, schedule: Q01DX001 (ip), vehicle: other", "value": "107 % of control"},
      {"measurement": "T/C", "setting": "dose: 125.0 micrograms/kg/injection, schedule: Q03HX024 (ip), vehicle: carboxymethylcellulose (CMC)", "value": "114 % of control"},
      {"measurement": "T/C", "setting": "dose: 250.0 micrograms/kg/injection, schedule: Q03HX024 (ip), vehicle: carboxymethylcellulose (CMC)", "value": "165 % of control"},
      {"measurement": "T/C", "setting": "dose: 2000.0 micrograms/kg/injection, schedule: Q03HX008 (ip), vehicle: carboxymethylcellulose (CMC)", "value": "253 % of control"}
    ]}
  ]
}
